Measured values taken from patent US20050107430A1, “Antimicrobial and antiviral compounds” (priority 2003, published 2005).
In brackets after ≈: the same amount, converted by molar mass. Several values for one entry are separate records, joined by “and”; a condition that tells them apart may be missing. Equal entries are not always repeated. Entries after “also recorded” stand apart in the source; their conditions may differ. Marks after values point to notes of the source that are not given here.

Columns and labels:
various microorganisms = experiment: Antimicrobial activity tests, various microorganisms; details: for growth in wells (activity): Example 1 microbes
[1] = test system: MRSA (oxacillin/methicillin resistant S. aureus); experiment: NCCLS MIC/MBC microdilution, MRSA; details: for MIC, MRSA (methicillin resistant): Table 3, 24 h and 48 h same results
Method: (§2) Standard NCCLS (e.g., National Committee for Clinical Laboratory Standards) methods for determining MIC (e.g., minimum inhibitory concentration) and MBC (e.g., minimum bactericidal concentration) were used. 96 well micro-well plates were placed in a humid chamber and frozen at −70° C. [BBL Mueller Hinton Broth]. Drugs (e.g., antimicrobial compounds of the present invention) were added to a series of wells through 2 fold serial dilutions. 100 μl of a 2×10^−3 M solution of the respective Tx compounds was added to the first well in a series. 100 μl of the inoculum (e.g., microorganism) was added to the well. […] For example, the concentration in well 8 would be less than the concentration of the same drug in well 7. Inoculum (e.g., microorganism) that was added to the wells was prepared from 24 hour growth of an isolate on 5% sheep blood/Columbia agar plates. 5 to 10 representative colonies were then picked from the plates and added to saline and adjusted to 0.5 McFarland turbidity. Next the sample was diluted 1:100 in saline, such that 100 μl of the diluted sample contained approximately 1×10^5 microbes. 100 μl of the diluted sample was added to each well in a series of drug concentrations. Once the cells were added to the wells, the well plates were incubated at 35° C. without CO2 for 48 hrs and at this time the minimum bactericidal concentration was determined.
(§3) The MIC of Tx-118, Tx-147, and Tx-197 for certain Staphylococcus aureus (MRSA), Pseudomonas aeruginosa, Stenotrophomonas maltophilia, and VRE Enterococcus faecalis was determined using standard NCCLS methods. The first well in each series of decreasing drug concentrations contained 1×10^−4 M of a drug. The drug was diluted by serial two fold dilutions through all 12 wells in a series. There was a final DMSO concentration of 2% in the first well and 1% in the second well, etc. Tests with Tx-118 and Tx-197 were performed in triplicate, and tests with Tx-147 were performed in duplicate.

S. aureus = experiment: NCCLS MIC/MBC microdilution, S. aureus patient isolates; type: cell-based, Staphylococcus aureus; details: for MBC: read at 48 hr
Description: (§1) [BBL Mueller Hinton Broth].

Enterococcus faecium = experiment: NCCLS MIC/MBC microdilution, Enterococcus (vancomycin sensitive); type: cell-based; details: for MBC: read at 48 hr
Description: as §1

P. aeruginosa = experiment: NCCLS MIC/MBC microdilution, P. aeruginosa; parameters: MIC: key to the marks not given beside the values; details: for MIC, P. aeruginosa: Table 3, P. aeroginosa is L13 from Table 2
[2] = test system: VRE (Vancomycin resistant Enterococci); experiment: NCCLS MIC/MBC microdilution, VRE; details: for MIC, VRE enterococcus (E. faecalis): 24 h and 48 h same results; for MIC: plate D4, VRE patient isolate
Method: as §2, §3

E. coli ATCC 25922 = experiment: NCCLS MIC/MBC microdilution, E. coli; type: cell-based; details: plate EC
Description: as §1

[3] = test system: Stenotrophomonas maltophilia; experiment: NCCLS MIC/MBC microdilution, S. maltophilia; details: for MIC, Stenotrophomonas maltophilia: 24 h and 48 h same results
Method: as §2, §3

BDF1′ mice = details: 30 mg/kg ip
human fibroblasts = experiment: Toxicity study with human fibroblasts; type: cell-based
[4] = test system: chloroquin (CQ) resistant strain of Plasmodium falciparum (Pf); experiment: In vitro efficacy against chloroquin resistant Plasmodium falciparum; type: cell-based
Method: Tx-5 and Tx-84 were tested for in vitro efficacy against a chloroquin (CQ) resistant strain of Plasmodium falciparum (Pf). The tests were performed in triplicate at a wide variety of concentrations and evaluated for effect compared with CQ.

Mycobacterium fortutium = experiment: MIC, Mycobacterium fortutium; type: cell-based; details: for MIC, Mycobacterium fortutium: Table 3
[5] = test system: Mycobacterium tuberculosis; details: Table 3
[6] = test system: Vancomycin resistant S. aureus ATCC700699 and 700788 (VRSA); experiment: NCCLS MIC/MBC microdilution, vancomycin resistant S. aureus; type: cell-based, Staphylococcus aureus; details: for MBC: read at 48 hr
Description: as §1

M. avium intracellularie = experiment: MIC, M. avium intracellularie; type: cell-based, Mycobacterium avium intracellulare; details: Table 3
[7] = plate K12, MRSA patient isolate
[8] = plate S332, S aureus patient isolate
[9] = plate S520, S aureus patient isolate penicillin resistant
[10] = plate E348, Enterococcus faecium patient isolate
[11] = plate E502, Enterococcus faecium ATCC 502806
[12] = plate E523, Enterococcus facium patient isolate
[13] = plate 37, P. aeruginosa sensitive isolate
[14] = plate ATCC, P. aeruginosa ATCC 27853
[15] = plate L13, P. aeruginosaR (multi-resistant)
[16] = plate C3, S. maltophilia patient isolate
[17] = plate I10, S. maltophilia patient isolate
[18] = plate J11, S. maltophilia patient isolate
[19] = Example 2, first well 1×10^−4 M
[20] = Table 3, 24 h and 48 h same results
[21] = plate 699, VancoR S. aureus ATCC700699
[22] = plate 788, VancoR S. aureus ATCC 700788

O=C(CCC(=O)N1CCCCC1)Nc1cc2c3ccccc3c(Br)cc2c2ccccc12 [Tx-11, N-(12′-bromo, 6-chrysenyl)-4-(1′-piperidinyl)-butane-1,4-dicarboxiamide]
growth in wells (activity) (various microorganisms): +3 growth (e.g., no activity)

O=C(CCC(=O)N1CCCCC1)Nc1ccc2c(c1)c(Br)cc1c3ccccc3ccc21 [Tx-12, N-(12′-bromo, 2′-chrysenyl)-4-(1′-piperidinyl)-butane-1,4-dicarboxiamide]
growth in wells (activity) (various microorganisms): +3 growth (e.g., no activity)

CN1CCN(C(=O)CCC(=O)Nc2cc3c(c4ccccc24)-c2ccc4ccccc4c2C3)CC1 [Tx-37, N-[11′-(13′H-Dibenzo[a,g]-fluorenyl)]-4-(4′N methyl-piperazinyl)-butane-1,4-dicarboxiamide]
MIC, MRSA (methicillin resistant) [1]: 1.8 to 7 µg/mL | MIC ([1]; plate A1, MRSA patient isolate): 7.2 µg/mL (≈ 15.5 µM) | MIC ([1]; plate B2, MRSA patient isolate): 3.6 µg/mL (≈ 7.77 µM) | MIC ([1]; plate E5, MRSA patient isolate): 3.6 µg/mL (≈ 7.77 µM) | MIC ([1]; plate F6, MRSA patient isolate): 1.8 µg/mL (≈ 3.88 µM) | MIC ([1]; plate G7, MRSA patient isolate): 3.6 µg/mL (≈ 7.77 µM) | MIC ([1]; plate H9, MRSA patient isolate): 7.2 µg/mL (≈ 15.5 µM) | MIC [1, 7]: 7.2 µg/mL (≈ 15.5 µM) | MIC (S. aureus; [8]): +++ | MIC (S. aureus; [9]): +++ | MIC (Enterococcus faecium; [10]): +++ | MIC (Enterococcus faecium; [11]): +++ | MIC (Enterococcus faecium; [12]): +++ | MIC, P. aeruginosa (P. aeruginosa): No activity | MIC (P. aeruginosa; [13]): +++ | MIC (P. aeruginosa; [14]): +++ | MIC (P. aeruginosa; [15]): +++ | MIC, VRE enterococcus (E. faecalis) ([2]; Table 3): 58 µg/mL (≈ 125 µM) | MIC [2]: 58 µg/mL (≈ 125 µM) | MIC (E. coli ATCC 25922): +++ | MIC, Stenotrophomonas maltophilia ([3]; Table 3): No activity | MIC [3, 16]: +++ | MIC [3, 17]: +++ | MIC [3, 18]: +++ | animal studies (ip), mortality (BDF1′ mice): 30 mg/kg (no mortality) | Toxicity/human fibroblasts (IC50) (human fibroblasts): 5 µg/mL

O=C(CCC(=O)N1CCCCC1)Nc1cc2c(c3ccccc13)-c1ccc3ccccc3c1C2 [Tx-38]
MIC, MRSA (methicillin resistant) [1]: No activity | MIC ([1]; plate A1, MRSA patient isolate): +++^a | MIC ([1]; plate B2, MRSA patient isolate): +++ | MIC ([1]; plate E5, MRSA patient isolate): +++ | MIC ([1]; plate F6, MRSA patient isolate): +++ | MIC ([1]; plate G7, MRSA patient isolate): +++ | MIC ([1]; plate H9, MRSA patient isolate): +++ | MIC [1, 7]: +++ | MIC (S. aureus; [8]): +++ | MIC (S. aureus; [9]): +++ | MIC (Enterococcus faecium; [10]): +++ | MIC (Enterococcus faecium; [11]): +++ | MIC (Enterococcus faecium; [12]): +++ | MIC, P. aeruginosa (P. aeruginosa): No activity | MIC (P. aeruginosa; [13]): +++ | MIC (P. aeruginosa; [14]): +++ | MIC (P. aeruginosa; [15]): +++ | MIC, VRE enterococcus (E. faecalis) ([2]; Table 3): No activity | MIC [2]: +++ | MIC (E. coli ATCC 25922): +++ | MIC, Stenotrophomonas maltophilia ([3]; Table 3): No activity | MIC [3, 16]: +++ | MIC [3, 17]: +++ | MIC [3, 18]: +++ | animal studies (ip), mortality (BDF1′ mice): 30 mg/kg (no mort) | Toxicity/human fibroblasts (IC50) (human fibroblasts): 12 ug/ml human fibroblasts

c1ccc2c(c1)c(NCCCCN1CCCCC1)cc1c3ccccc3c(NCCCCN3CCCCC3)cc21 [Tx-84]
MIC, MRSA (methicillin resistant) [1]: 16 µg/mL (≈ 29.8 µM) | MIC, P. aeruginosa (P. aeruginosa): No activity | MIC, VRE enterococcus (E. faecalis) ([2]; Table 3): 4 to 33 µg/mL | IC50 ([4]; CQ resistant P. falciparum, in vitro, triplicate): 91 nM | inhibitory effect against Pf ([4]; in words): significant inhibitory effect; also recorded: greater than that of CQ

CC(=O)c1cc2c3ccccc3ccc2c2ccc(NC(=O)CCC(=O)N3CCN(C)CC3)cc12 [Tx-118, N-(12′-acetyl, 2′-chrysenyl)-4-(4′N methyl-piperazinyl)-butane-1,4-dicarboxiamide]
MIC, MRSA (methicillin resistant) [1]: No activity | MIC, P. aeruginosa (P. aeruginosa): No activity | MIC, VRE enterococcus (E. faecalis) ([2]; Table 3): No activity | MIC, Mycobacterium fortutium (Mycobacterium fortutium): No activity | MIC, Stenotrophomonas maltophilia ([3]; Table 3): No activity

CN1CCN(CCCCNc2cc3c4ccccc4c(NCCCCN4CCN(C)CC4)cc3c3ccccc23)CC1.Cl [Tx-147]
MIC for Staphylococcus aureus (MRSA) ([1]; Example 2, first well 1×10^−4 M, two fold dilutions): 0.0039 µg/mL | concentration that was bactericidal, Staphylococcus aureus (MRSA) ([1]; Example 2, wells 1 and 2, hydrochloride): 0.0078 µg/mL and 0.0039 µg/mL | MIC, MRSA (methicillin resistant) [1]: 24 to 49 µg/mL | bactericidal activity against Staphylococcus aureus (MRSA) ([1]; in words, Example 1): bactericidal activity | MIC ([1]; plate A1, MRSA patient isolate): 24 µg/mL | MIC ([1]; plate B2, MRSA patient isolate): 48 µg/mL | MIC ([1]; plate E5, MRSA patient isolate): 24 µg/mL | MIC ([1]; plate F6, MRSA patient isolate): 24 µg/mL | MIC ([1]; plate G7, MRSA patient isolate): 24 µg/mL | MIC ([1]; plate H9, MRSA patient isolate): 48 µg/mL | MIC [1, 7]: 48 µg/mL | MIC (S. aureus; [8]): 12/12 ug/ml | MBC (S. aureus; [8]): 12/12 ug/ml | MIC (S. aureus; [9]): 12/12 ug/ml | MBC (S. aureus; plate S520, S aureus patient isolate): 12/12 ug/ml | MIC (Enterococcus faecium; [10]): 3 µg/mL | MBC (Enterococcus faecium; [10]): 6 µg/mL | MIC (Enterococcus faecium; [11]): 6 µg/mL | MBC (Enterococcus faecium; [11]): 12 µg/mL | MIC (Enterococcus faecium; [12]): 6 µg/mL | MBC (Enterococcus faecium; [12]): 12 µg/mL | MIC, P. aeruginosa (P. aeruginosa): No activity | MIC (P. aeruginosa; [13]): +++ | MIC (P. aeruginosa; [14]): +++ | MIC (P. aeruginosa; [15]): +++ | MIC for VRE [2, 19]: 0.0019 µg/mL | MIC, VRE enterococcus (E. faecalis) ([2]; Table 3): 12 µg/mL | MIC, VRE enterococcus (vancomycin, Penicillin & aminoglycoside rest.) ([2]; Table 3, vancomycin, Penicillin & aminoglycoside resistant): 19 µg/mL | bactericidal activity for VRE ([2]; in words, Example 1): some bactericidal activity | MIC [2]: 12 µg/mL | MIC for Mycobacterium fortutium (Mycobacterium fortutium; Example 2): 0.0039 µg/mL | MIC, Mycobacterium fortutium (Mycobacterium fortutium): 39 µg/mL | MIC (E. coli ATCC 25922): +++ | MIC, Mycobacterium tuberculosis [5]: 3 µg/mL | MIC for Stenotrophomonas maltophilia [3, 19]: 0.0078 µg/mL | MIC, Stenotrophomonas maltophilia ([3]; Table 3): 98 to 785 µg/mL | MIC, Stenotrophomonas maltophilia (resist. various drugs) ([3]; Table 3, strain resist. various drugs): 78 µg/mL | MIC [3, 16]: 96 µg/mL | MIC [3, 17]: 784 µg/mL | MIC [3, 18]: 784 µg/mL | MIC, VRSA (ATCC 700699) [6, 20]: 6 µg/mL | MIC, VRSA (ATCC 700788) [6, 20]: 24 µg/mL | MIC [6, 21]: 6 µg/mL | MBC [6, 21]: 23 µg/mL | MIC [6, 22]: 24 µg/mL | MBC [6, 22]: 49 µg/mL | animal studies (ip), mortality (BDF1′ mice): 30 mg/kg (10-12% mort) | MIC, M. avium intracellularie (M. avium intracellularie): 12 to 24 µg/mL

Cl.c1ccc2c(c1)c(NCCCCN1CCCCC1)cc1c3ccccc3c(NCCCCN3CCCCC3)cc21 [Tx-225]
antimicrobial activity (various microorganisms; in words): activity similar to Tx-84
